This note sets out measurements from patent US9765116B2, “Inhibitors of the Eph-A receptor and uses thereof” (Carmel Haifa University Economic Corporation Ltd., priority 2013, dated 2017).

The target in assay [1] is T1, EphA4 (Rattus norvegicus, UniProt D3ZZK3). Nature of the assay: ephrinA4-induced EphA4 tyrosine phosphorylation in brain slices containing the amygdala (immunoprecipitation, Western blot). It is filed as cell-based. Particulars: brain slices in Ringer's solution stimulated with ephrinA4-Fc for 20 minutes, compared to Ringer's solution control. The arrangement: brain slices that contain the amygdala were divide to 3 groups; from tissue; host or cells: brain slices containing the amygdala. How it is done:
Further, brain slices that contain the amygdala were divide to 3 groups: 1) placed in Ringer's solution, 2) placed in Ringer's solution and stimulated with ephrinA4-Fc for 20 minutes or 3) placed in Ringer's solution with pep-ephrinA4 for 20 minutes followed by stimulation with ephrinA4-Fc for 20 minutes (n=3 each). Protein extracts from the slices were immunoprecipitated with anti-EphA4 antibody and subjected to Western blot with anti-EphA4 or anti-phosphotyrosine antibodies.

Assay [2] addresses T1, EphA4. Nature of the assay: Pull down experiment with pep-ephrinA4 (FIG. 4B), EphA4. The class given is binding. To be noted: vs pep-control and agarose beads alone.
Assay [3] has as its system rats. Particulars: subcutaneous, single dose 20 μl of 10 μg/μl, 1 hour after fear conditioning, relative to saline. As for the experimental part: A fear conditioning in vivo model was performed as in example 3A, however, no cannula was introduced into the rats. […] A fear memory test was performed 24 hours after the injection.
The target of assay [4] is elongation factor 2 protein (eEF2) (Rattus norvegicus, UniProt P05197). Nature of the assay: Pull down experiment with pep-ephrinA4, eEF2 control protein. It is filed as binding.
Assay [5] has as its system male Sprague Dawley rats.
Experimental: Subsequently, the neutral stimulus is administered to the groups of animals, and the animals' responses are analyzed. A test group of animals is administered a test agent which may inhibit the long term association in the memory of the animals between the neutral stimulus and the aversive event. If at a point in time about 24 hours after training the animals in the test group respond to the stimulus to a lesser degree than the animals in the control group without having other significant side effects, the test agent is determined to inhibit formation of long term memories. […] Short term memory formation was also tested in the current model by testing responses to stimulus 60 minutes after training.
In the current model, neutral stimulus provided to the animals was a tone and the aversive event was a mild footshock provided to the animals.
Long-term memory formation is believed to involve modifications in neural transmission and/or synaptic connections in neural networks in the area of the brain known as the lateral amygdala (LA.) In the current model, Peptide 1 was used a test agent and was administered directly to the LA.
In the model, male Sprague Dawley rats (each weighing about 250-300 grams), were used in the study (animals were obtained from Harlan Laboratories). In order to administer test agents to the LA of the rats, surgery was performed in which cannulas were inserted. To perform the surgery, rats were anesthetized with Xylazine 2% (15 milligrams per kilogram [mg/kg]) and Ketamine (120 mg/kg). Calmagine (Vetoquinol) (0.01 milliliters) was injected for analgesia before surgery. Guide stainless-steel cannulas (23 gauge) were implanted bilaterally 1.5 millimeters (mm) above the LA. The animals recovered for 5-7 days before behavior training.
Following surgery, rats were housed separately at 22±2° C. in a 12 hour light/dark cycle, with free access to food and water.
Rats were habituated to the training chamber and to the injection machine for 2 days for 30 min each day. On the next day the animals were subjected to the fear conditioning protocol. […]
Assay [6] concerns EphB2 receptor. Particulars: control protein.

T1 sequence (D3ZZK3 20-986): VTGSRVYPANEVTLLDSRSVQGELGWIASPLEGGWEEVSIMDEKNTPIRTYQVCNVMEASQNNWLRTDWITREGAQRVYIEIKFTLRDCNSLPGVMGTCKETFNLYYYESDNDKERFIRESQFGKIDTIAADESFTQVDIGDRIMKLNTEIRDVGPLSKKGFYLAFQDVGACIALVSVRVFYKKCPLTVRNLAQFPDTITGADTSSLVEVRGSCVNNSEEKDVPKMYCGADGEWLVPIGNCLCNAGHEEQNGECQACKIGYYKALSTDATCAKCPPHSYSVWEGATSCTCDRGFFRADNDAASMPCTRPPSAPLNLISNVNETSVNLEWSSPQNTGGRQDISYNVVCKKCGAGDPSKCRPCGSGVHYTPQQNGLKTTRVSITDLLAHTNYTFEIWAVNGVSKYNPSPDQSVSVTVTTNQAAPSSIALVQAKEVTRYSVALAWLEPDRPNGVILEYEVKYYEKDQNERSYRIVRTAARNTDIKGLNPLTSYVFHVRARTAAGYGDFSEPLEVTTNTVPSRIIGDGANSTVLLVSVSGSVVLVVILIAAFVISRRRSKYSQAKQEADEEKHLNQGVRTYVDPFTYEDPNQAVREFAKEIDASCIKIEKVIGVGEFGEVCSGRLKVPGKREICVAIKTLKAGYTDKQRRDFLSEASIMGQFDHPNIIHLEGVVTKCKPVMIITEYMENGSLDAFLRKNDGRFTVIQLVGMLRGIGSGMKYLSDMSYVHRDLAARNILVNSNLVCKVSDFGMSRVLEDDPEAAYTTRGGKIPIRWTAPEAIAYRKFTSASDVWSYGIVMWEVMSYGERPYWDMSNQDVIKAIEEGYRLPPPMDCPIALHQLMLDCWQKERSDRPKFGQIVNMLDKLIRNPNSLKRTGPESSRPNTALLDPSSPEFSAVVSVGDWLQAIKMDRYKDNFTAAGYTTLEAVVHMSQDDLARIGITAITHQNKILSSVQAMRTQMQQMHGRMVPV

As for “ephrinA4: ephrinA4-Fc used to stimulate brain slices for 20 minutes (RRQRYTPFPLGFEK)”, the “EphA4 phosphorylation after stimulation” value in assay [1] is “significant increase”.
Consider “Ac-RRWSGYEACTAEG-Lys(Biotin)-NH2-0H [peptide 2, reference compound]”, for which the “interaction with EphA4 (pull down)” value in assay [2] is on record as “not”.
Turning to “Ac-RRQRYTPFPLGFE-Lys(Biotin)-NH2-0H [peptide 1]”, in assay [3], the “freezing in fear memory test 24 hours after the injection” value is reported as “significantly reducing freezing”. In assay [2], the “interaction with EphA4 (pull down)” value was “interacts”. In addition, the “interaction with elongation factor 2 protein (eEF2) (pull down)” value in assay [4] is reported as “did not interact”. In assay [5] (0.5 μl of 10 μg/μl per amygdala into LA 30 minutes before training, vs saline, peptide 2 and misplaced peptide 1), the “freezing 24 hours after training (long term fear memory)” value is “froze significantly less”. The “rate of fear reduction over the trials” value in assay [5] (LA microinjection, compared to controls) is “did not alter”. Moreover, in assay [5] (LA microinjection, no main effect for groups (p>0.4)), the “freezing 1 hour after training (formation of short term memory)” value is “does not inhibit”. Moreover, the “interaction with EphB2 receptor (pull down)” value in assay [6] is given as “did not interact”.
